The target of the assay is T1, HCV polymerase (Hepatitis C virus genotype 1b, UniProt P26663).
T1 construct: 2.5 pmoles (0.15 μg) HCV polymerase protein in a final volume of 75 μL
The experiment in a line: HCV polymerase primer/template-directed transcription assay (32P-GTP incorporation, filter binding). The class given is biochemical. Conditions: recombinant HCV polymerase; 30 minutes at 30° C.; concentration giving 50% inhibition of polymerase-directed transcription; read-out: IC50. The essentials:
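Recombinant genotype 1b polymerase (30 nM) extended biotin-dG12 primer on poly(rC)300 template with 1 μM GTP plus α-32P-GTP, pH 7.2, 10 mM MgCl2, 30 min at 30° C, 1% DMSO final. Products captured on DE filters and counted. IC50 fitted from triplicate cpm, with a tight-binding correction applied below 200 nM.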

We go through 28 molecules from US7473790B2 (Pfizer Inc., priority 2003, dated 2009).

Structures are written as SMILES.

One may read the IC50 as the midpoint of a concentration-inhibition curve.

T1 sequence (P26663 2420-3010): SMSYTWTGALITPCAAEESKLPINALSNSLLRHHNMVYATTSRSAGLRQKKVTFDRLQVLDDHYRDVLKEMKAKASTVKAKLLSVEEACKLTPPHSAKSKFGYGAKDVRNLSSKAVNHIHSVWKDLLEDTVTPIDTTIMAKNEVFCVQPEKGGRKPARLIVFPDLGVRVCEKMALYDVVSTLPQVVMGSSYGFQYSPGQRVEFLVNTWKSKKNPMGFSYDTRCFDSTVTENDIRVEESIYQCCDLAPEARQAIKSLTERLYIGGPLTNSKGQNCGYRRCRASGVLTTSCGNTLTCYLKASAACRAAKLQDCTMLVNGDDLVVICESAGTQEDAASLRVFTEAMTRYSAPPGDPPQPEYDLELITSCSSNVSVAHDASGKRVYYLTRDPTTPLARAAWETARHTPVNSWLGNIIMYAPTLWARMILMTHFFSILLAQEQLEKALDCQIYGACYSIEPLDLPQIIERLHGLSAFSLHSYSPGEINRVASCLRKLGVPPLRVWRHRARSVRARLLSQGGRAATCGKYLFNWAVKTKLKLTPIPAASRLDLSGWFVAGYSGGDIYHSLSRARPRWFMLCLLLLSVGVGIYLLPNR

For the molecule `COc1cc(OC)c(CCC2(C3CCCC3)CC(O)=C(Sc3nnc(C)n3CCN3CCOCC3)C(=O)O2)cc1Cl` (stereo not shown) [C(86), 6-[2-(5-chloro-2,4-dimethoxyphenyl)ethyl]-6-cyclopentyl-4-hydroxy-3-{[5-methyl-4-(2-morpholin-4-ylethyl)-4H-1,2,4-triazol-3-yl]thio}-5,6-dihydro-2H-pyran-2-one], the IC50 turned out to be 48 nM.

On to `CCc1cc(CCC2(C3CCCC3)CC(=O)CC(=O)O2)ccc1OCCO` (stereo not shown) [A(128), 6-Cyclopentyl-6-{2-[3-ethyl-4-(2-hydroxy-ethoxy)-phenyl]-ethyl}-dihydro-pyran-2,4-dione], for which the IC50 came out at 490 nM.

Consider `O=C1OC(CCC2=CCCCC2)(C2CCCC2)CC(O)=C1Sc1nnc(-c2ccncc2)[nH]1` (stereo not shown) [C(04), 6-(2-Cyclohex-1-enyl-ethyl)-6-cyclopentyl-4-hydroxy-3-(5-pyridin-4-yl-4H-[1,2,4]triazol-3-ylsulfanyl)-5,6-dihydro-pyran-2-one], for which the IC50 was 1800 nM.

Consider `CC(C)(CNC(=O)c1cnc(O)cn1)c1cccc(CCC2(C3CCCC3)CC(=O)CC(=O)O2)c1` (stereo not shown) [A(74), 5-Hydroxy-pyrazine-2-carboxylic acid (2-{3-[2-(2-cyclopentyl-4,6-dioxo-tetrahydro-pyran-2-yl)-ethyl]-phenyl}-2-methyl-propyl)-amide], for which the IC50 worked out at 1200 nM.

Regarding `CC1(c2ccc(CCC3(C4CCCC4)CC(=O)CC(=O)O3)cc2)CCC(=O)O1` (stereo not shown) [A(29), 6-Cyclopentyl-6-{2-[4-(2-methyl-5-oxo-tetrahydro-furan-2-yl)-phenyl]-ethyl}-dihydro-pyran-2,4-dione], the concentration for half-maximal inhibition (IC50) amounted to 1500 nM.

For the molecule `CCC(C#N)(CC)c1c(F)cc(CCC2(C3CCCC3)CC(O)=C(Cc3nc4ncc(C)cn4n3)C(=O)O2)cc1F` (single isomer, unassigned; (-)) [A(264), (−)-2-(4-{2-[2-Cyclopentyl-4-hydroxy-5-(6-methyl-[1,2,4]triazolo[1,5-a]pyrimidin-2-ylmethyl)-6-oxo-3,6-dihydro-2H-pyran-2-yl]-ethyl}-2,6-difluoro-phenyl)-2-ethyl-butyronitrile], the IC50 is 4 nM.

As to `CCc1cc(CCC2(C3CCCC3)CC(O)=C(Cc3nc4nc(C)ccn4n3)C(=O)O2)ccc1O` (stereo not shown) [A(229), 6-cyclopentyl-6-[2-(3-ethyl-4-hydroxyphenyl)ethyl]-4-hydroxy-3-[(5-methyl[1,2,4]triazolo[1,5-a]pyrimidin-2-yl)methyl]-5,6-dihydro-2H-pyran-2-one], the IC50 worked out at 10 nM.

For `Cc1cc(C)n2nc(CC3C(=O)CC(CCc4cccc(C(C)C)c4)(C4CCCC4)OC3=O)nc2n1` (stereo not shown) [B(49), 6-cyclopentyl-3-[(5,7-dimethyl[1,2,4]triazolo[1,5-a]pyrimidin-2-yl)methyl]-6-[2-(3-isopropylphenyl)ethyl]dihydro-2H-pyran-2,4(3H)-dione], the concentration for half-maximal inhibition (IC50) was 10 nM.

On to `O=C1OC(CCc2ccc(O)c(CC(F)(F)F)c2)(C2CCCC2)CC(O)=C1Cc1nc2ncc(Cl)cn2n1` (racemic) [A(223), 3-[(6-chloro[1,2,4]triazolo[1,5-a]pyrimidin-2-yl)methyl]-6-cyclopentyl-4-hydroxy-6-{2-[4-hydroxy-3-(2,2,2-trifluoroethyl)phenyl]ethyl}-5,6-dihydro-2H-pyran-2-one], for which the concentration for half-maximal inhibition (IC50) was determined as 5 nM.

In the case of `O=C1CC(=O)OC(CCc2ccc(Cc3nccs3)c(F)c2)(C2CCCC2)C1` (stereo not shown) [A(77), 6-Cyclopentyl-6-[2-(3-fluoro-4-thiazol-2-ylmethyl-phenyl)-ethyl]-dihydro-pyran-2,4-dione], the 50% inhibitory concentration (IC50) came out at 24000 nM.

Regarding `CCc1cc(CCC2(C3CCCC3)CC(O)=C(Cc3nc4ncc(Cl)cn4n3)C(=O)O2)ccc1O` (racemic) [A(272), 3-(6-Chloro-[1,2,4]triazolo[1,5-a]pyrimidin-2-ylmethyl)-6-cyclopentyl-6-[2-(3-ethyl-4-hydroxy-phenyl)-ethyl]-4-hydroxy-5,6-dihydro-pyran-2-one], the concentration for half-maximal inhibition (IC50) came to 6 nM.

For `N#Cc1ccccc1CCC1(C2CCCC2)CC(=O)CC(=O)O1` (stereo not shown) [A(46), 2-[2-(2-Cyclopentyl-4,6-dioxo-tetrahydro-pyran-2-yl)-ethyl]-benzonitrile], the IC50 stood at 73000 nM.

Take `COc1ccc(CCC2(C3CCCC3)CC(O)=C(Sc3nc4ccccc4s3)C(=O)O2)cc1Cl` (stereo not shown) [C(45), 3-(1,3-benzothiazol-2-ylthio)-6-[2-(3-chloro-4-methoxyphenyl)ethyl]-6-cyclopentyl-4-hydroxy-5,6-dihydro-2H-pyran-2-one]: the half-maximal inhibitory concentration (IC50) is 3200 nM.

Turning to `CCc1cc(CCC2(C3CCCC3)CC(O)=C(Cc3nc4nc(C)cc(C)n4n3)C(=O)O2)cc(CC)c1O` (stereo not shown) [A(232), 6-cyclopentyl-6-[2-(3,5-diethyl-4-hydroxyphenyl)ethyl]-3-[(5,7-dimethyl[1,2,4]triazolo[1,5-a]pyrimidin-2-yl)methyl]-4-hydroxy-5,6-dihydro-2H-pyran-2-one], the concentration for half-maximal inhibition (IC50) worked out at 4 nM.

Consider `CCc1cc(CCC2(C3CCCC3)CC(=O)CC(=O)O2)ccc1OC` (stereo not shown) [A(96), 6-Cyclopentyl-6-[2-(3-ethyl-4-methoxy-phenyl)-ethyl]-dihydro-pyran-2,4-dione], for which the concentration for half-maximal inhibition (IC50) was determined as 3200 nM.

For the molecule `Cc1cc(C)n2nc(CC3=C(O)CC(CCc4ccc(OC(C)C)c(F)c4)(C4CCCC4)OC3=O)nc2n1` (single isomer, unassigned) [J(3), 6-cyclopentyl-3-[(5,7-dimethyl[1,2,4]triazolo[1,5-a]pyrimidin-2-yl)methyl]-6-[2-(3-fluoro-4-isopropoxyphenyl)ethyl]-4-hydroxy-5,6-dihydro-2H-pyran-2-one], the half-inhibitory concentration (IC50) turned out to be 5 nM.

Turning to `COc1ccc(CCC2(C3CCCC3)CC(O)=C(Cc3nc4ncc(C)cn4n3)C(=O)O2)c(OC)c1` (stereo not shown) [B(118), 6-Cyclopentyl-6-[2-(2,4-dimethoxy-phenyl)-ethyl]-4-hydroxy-3-(6-methyl-[1,2,4]triazolo[1,5-a]pyrimidin-2-ylmethyl)-5,6-dihydro-pyran-2-one], the half-maximal inhibitory concentration (IC50) came out at 200 nM.

On to `CCOC(=O)c1cnc2nc(SC3=C(O)CC(CCc4cc(Cl)c(OC)cc4OC)(C4CCCC4)OC3=O)nn2c1` (stereo not shown) [C(93), ethyl 2-({6-[2-(5-chloro-2,4-dimethoxyphenyl)ethyl]-6-cyclopentyl-4-hydroxy-2-oxo-5,6-dihydro-2H-pyran-3-yl}thio)[1,2,4]triazolo[1,5-a]pyrimidine-6-carboxylate], for which the half-maximal inhibitory concentration (IC50) was found to be 14 nM.

Regarding `Cc1noc(C)c1-c1ccc(CCC2(C3CCCC3)CC(O)=C(Sc3nc4cc(Cl)ccc4n3C)C(=O)O2)cc1` (stereo not shown) [C(14), 3-(5-Chloro-1-methyl-1H-benzoimidazol-2-ylsulfanyl)-6-cyclopentyl-6-{2-[4-(3,5-dimethyl-isoxazol-4-yl)-phenyl]-ethyl}-4-hydroxy-5,6-dihydro-pyran-2-one], the IC50 came to 14 nM.

With `CC(C)(O)c1ccc(CCC2(C3CCCC3)CC(O)=C(Cc3nc4ncc(Cl)cn4n3)C(=O)O2)cc1F` (stereo not shown) [A(214), 3-[(6-chloro[1,2,4]triazolo[1,5-a]pyrimidin-2-yl)methyl]-6-cyclopentyl-6-{2-[3-fluoro-4-(1-hydroxy-1-methylethyl)phenyl]ethyl}-4-hydroxy-5,6-dihydro-2H-pyran-2-one], the IC50 worked out at 38 nM.

As to `COc1ccc(CCC2(C3CCCC3)CC(O)=C(Sc3nc4nccc(C)n4n3)C(=O)O2)cc1Cl` (stereo not shown) [C(95), 6-[2-(3-chloro-4-methoxyphenyl)ethyl]-6-cyclopentyl-4-hydroxy-3-[(7-methyl[1,2,4]triazolo[1,5-a]pyrimidin-2-yl)thio]-5,6-dihydro-2H-pyran-2-one], the IC50 was 74 nM.

As for `COc1ccc(CCC2(C3CCCC3)CC(=O)C(Cc3ccc4ccccc4n3)C(=O)O2)cc1Cl` (stereo not shown) [B(85), 6-[2-(3-chloro-4-methoxyphenyl)ethyl]-6-cyclopentyl-3-(quinolin-2-ylmethyl)dihydro-2H-pyran-2,4(3H)-dione], the concentration for half-maximal inhibition (IC50) was found to be 740 nM.

`COc1ccc(CCC2(C3CCCC3)CC(O)=C(Sc3nccn3C)C(=O)O2)cc1Cl` (stereo not shown) [C(101), 6-[2-(3-chloro-4-methoxyphenyl)ethyl]-6-cyclopentyl-4-hydroxy-3-[(1-methyl-1H-imidazol-2-yl)thio]-5,6-dihydro-2H-pyran-2-one]: the IC50 is 140 nM.

As for `COc1ccc(CCC2(C3CCCC3)CC(=O)C(Cc3ccccc3)C(=O)O2)cc1Cl` (stereo not shown) [B(78), 3-benzyl-6-[2-(3-chloro-4-methoxyphenyl)ethyl]-6-cyclopentyldihydro-2H-pyran-2,4(3H)-dione], the IC50 is 1000 nM.

For `COc1ccc(CCC2(C3CCCC3)CC(O)=C(Sc3nc4ncc(C)cn4n3)C(=O)O2)cc1Cl` (stereo not shown) [C(98), 6-[2-(3-chloro-4-methoxyphenyl)ethyl]-6-cyclopentyl-4-hydroxy-3-[(6-methyl[1,2,4]triazolo[1,5-a]pyrimidin-2-yl)thio]-5,6-dihydro-2H-pyran-2-one], the half-maximal inhibitory concentration (IC50) came to 68 nM.

`Cc1cc(C)n2nc(CC3=C(O)CC(CCc4ccc5c(c4)OC(F)(F)C(F)(F)O5)(C4CCCC4)OC3=O)nc2n1` (stereo not shown) [B(40), 6-Cyclopentyl-3-(5,7-dimethyl-[1,2,4]triazolo[1,5-a]pyrimidin-2-ylmethyl)-4-hydroxy-6-[2-(2,2,3,3-tetrafluoro-2,3-dihydro-benzo[1,4]dioxin-6-yl)-ethyl]-5,6-dihydro-pyran-2-one]: the half-maximal inhibitory concentration (IC50) turned out to be 14 nM.

For `CCc1cc(CCC2(C3CCCC3)CC(=O)CC(=O)O2)cc(F)c1O` (stereo not shown) [A(124), 6-Cyclopentyl-6-[2-(3-ethyl-5-fluoro-4-hydroxy-phenyl)-ethyl]-dihydro-pyran-2,4-dione], the IC50 came to 350 nM.

For `CC(C)(C#N)c1ccc(CCC2(C3CCCC3)CC(O)=C(Cc3cccc(S(C)(=O)=O)c3)C(=O)O2)cc1F` (stereo not shown) [A(101), 2-[4-(2-{2-cyclopentyl-4-hydroxy-5-[3-(methylsulfonyl)benzyl]-6-oxo-3,6-dihydro-2H-pyran-2-yl}ethyl)-2-fluorophenyl]-2-methylpropanenitrile], the concentration for half-maximal inhibition (IC50) came to 66 nM.
